Reference: patent publication US7928129B1, “Nanomolar β-lactamase inhibitors” (Northwestern University, priority 2002, dated 2011)
Like-named read-outs stand apart in the source and are kept apart here. Each block holds one compound with its values, some of them ahead of it.

Experiments:
AmpC N289A = target: T1, AmpC N289A (Escherichia coli, UniProt P00811, N305A); experiment: biochemical; format: biochemical
T1 construct: made in house
Protocol: (§1) Enzyme mutagenesis and preparation. Mutants of AmpC were created using the overlap extension polymerase chain reaction (23). Mutant enzymes were expressed as described. AmpC N289A and L293A were purified on an m-aminophenylboronic acid affinity column. AmpC L119A was purified on an S-Sepharose ion-exchange column. The purified enzymes were concentrated using Centricon spin concentrators.
(§2) Mutant Enzymology. The glycylboronic acids were dissolved in DMSO at a concentration of 50 mM; more dilute stocks were subsequently prepared as necessary. Kinetic measurements were performed using nitrocefin as a substrate in 50 mM Tris buffer, pH 7.0, and monitored at 480 nm in an HP9453 UV-vis spectrophotometer. To prevent overestimation of inhibition due to sequestration of the enzyme on the walls of the cuvette during the reaction, 0.1% BSA was added to the buffer in all reactions. […] To determine Ki values, inhibitor and enzyme were incubated together in the cuvettes for 5 min before reaction was initiated by the addition of substrate. 200 μM nitrocefin was used for the reactions with L119A and L293A, whereas 400 μM nitrocefin was used for the reactions with N289A to shorten the lag phase of the reaction. For the reactions with N289A, rates were calculated from the later portions of the curve, once the reactions had achieved steady state. These rates were compared with portions of the uninhibited curves that corresponded to the same range of substrate concentrations.

AmpC β-lactamase [1] = target: T2, AmpC β-lactamase (Escherichia coli, UniProt P00811); experiment: biochemical; details: for fold more potent than the lead compound lacking the m.carboxyphenyl side chain: 15 versus 1, 16 versus 4
T2 construct: made in house
Protocol: Enzymology. The phenylglycylboronic acids of the preceding examples were dissolved in DMSO at a concentration of 50 mM; more dilute stocks (10 mM to 1 μM) were subsequently prepared as necessary. Kinetic measurements were performed using nitrocefin as substrate in 50 mM Tris buffer, pH 7.0 and monitored in an HP8453 UV/Vis spectrophotometer. The concentration of AmpC was determined spectrophotometrically in stock solutions made from lyophilized powder; this enzyme had been previously expressed and purified. Usher, K. C., Blaszczak, L. C., Weston, G. S., Shoichet, B. K. and Remington, S. J. Biochemistry 1998, 37, 16082-16092. […] To determine K, values, inhibitor and enzyme were incubated together at their final concentration in the cuvettes for five minutes before the reaction was initiated by the addition of 200 μM substrate. […] Waley, S. G. Biochem. J. 1982, 205 631-633. […] In all reactions, rates were measured after reactions had overcome their initial lag phase and had reached a steady state.
as §2

P. aeruginosa JMSMA7 = experiment: MIC, synergy with ceftazidime, microdilution; format: cell-based; details: Pseudomonas aeruginosa, P. aeruginosa 2, ceftazidime to inhibitor 1:1 in combinations
Protocol: (§3) Microbiology. Compounds 16 and 21 were tested for synergy with the β-lactam ceftazidime against pathogenic bacteria from clinical isolates at the Hospital Ramón y Cajal; these bacteria were resistant to β-lactams due to expression of a class C β-lactamase. Strains of bacteria tested were: Citrobacter freundii mut756-CAZ, Escherichia coli 72929 Hip, E. coli 4774 Hip (Table 4, E. coli 1 and 2, respectively), Enterobacter cloacae 72527 ED, E. cloacae 8411 CAZ-R clon7, E. cloacae 12991 ED (Table 4, E. cloacae 1, 2, and 3, respectively), Pseudomonas aeruginosa 279/88, and P. aeruginosa JMSMA7 (Table 4, P. aeruginosa 1 and 2, respectively). Minimum inhibitor concentration (MIC) values were determined with Mueller-Hinton Broth II using the microdilution method according to NCCLS guidelines. National Committee for Clinical Laboratory Standards, Methods for dilution antimicrobial susceptibility test for bacteria that grow aerobically. Approved Standard M7-A4, 1997, vol. 17, National Committee for Clinical Laboratory Standards, Villanova, Pa.

[2] = tested on: Escherichia coli 72929 Hip; experiment: MIC, synergy with ceftazidime, microdilution; format: cell-based; details: E. coli 1, ceftazidime to inhibitor 1:1 in combinations
Protocol: as §3

AmpC β-lactamase [3] = target: T2, AmpC β-lactamase; details: glycylboronic acid previously found, no buffer footnote; cited from earlier work
AmpC L119A = target: T3, AmpC L119A (Escherichia coli, UniProt P00811, L135A); experiment: biochemical; format: biochemical
T3 construct: made in house
Protocol: as §1, §2

AmpC L293A = target: T4, AmpC L293A (Escherichia coli, UniProt P00811, L309A); experiment: biochemical; format: biochemical
T4 construct: made in house
Protocol: as §1, §2

[4] = target: α-chymotrypsin (bovine pancreatic) (Bos taurus, UniProt P00766); experiment: biochemical; details: for selectivity for AmpC over α-chymotrypsin: ratio of IC50 values
Protocol: (§4) Selectivity. The selectivity of compounds 16 and 21 was tested by determining their activity against the serine proteases α-chymotrypsin (bovine pancreatic), β-trypsin (bovine pancreatic), and elastase (porcine pancreatic), all from Sigma (St. Louis, Mo.). The substrates for α-chymotrypsin (succinyl-ala-ala-pro-phe-p-nitroanilide) and β-trypsin (N-benzoyl-L-arginine ethyl ester) were also purchased from Sigma. The elastase substrate (MeOSuc-Ala-Ala-Pro-Val-pNA) was purchased from Calbiochem (San Diego, Calif.). Substrates were diluted from 20 mM DMSO stock solutions, and all reactions were performed in 50 mM Tris buffer, pH 7.0, 25° C. For α-chymotrypsin, 0.001 mg/ml of enzyme and the inhibitor at its final concentration were incubated in the cuvette for five minutes before the reaction was initiated by the addition of 200 μM of substrate. The reaction was monitored at 410 nm. For β-trypsin, 0.004 mg/ml of enzyme and the inhibitor at its final concentration were incubated in the cuvette for five minutes before the reaction was initiated by the addition of 200 μM of substrate. The reaction was monitored at 253 nm. For elastase, 0.006 mg/ml of enzyme and the inhibitor at its final concentration were incubated in the cuvette for five minutes before the reaction was initiated by the addition of 640 μM of substrate. The reaction was monitored at 385 nm. Initial rate fits to the absorbance data for the first 100 seconds were used to determine reaction velocities.

[5] = target: elastase (porcine pancreatic) (Sus scrofa, UniProt P00772); experiment: biochemical; details: for selectivity for AmpC over elastase: ratio of IC50 values
Protocol: as §4

[6] = target: β-trypsin (bovine pancreatic) (Bos taurus, UniProt P00760); experiment: Selectivity: serine protease β-trypsin; format: biochemical; details: 50 mM Tris pH 7.0, 25° C.
Excerpt: Selectivity. […] The reaction was monitored at 410 nm. […] The reaction was monitored at 253 nm. […] The reaction was monitored at 385 nm.

[7] = tested on: eight clinically isolated bacterial pathogens producing class C β-lactamases; format: cell-based; details: against all strains
Protocol: Microbiology. Compounds 16 and 21 were tested for synergy with the β-lactam ceftazidime against pathogenic bacteria from clinical isolates at the Hospital Ramón y Cajal; these bacteria were resistant to β-lactams due to expression of a class C β-lactamase. […] Minimum inhibitor concentration (MIC) values were determined with Mueller-Hinton Broth II using the microdilution method according to NCCLS guidelines. National Committee for Clinical Laboratory Standards, Methods for dilution antimicrobial susceptibility test for bacteria that grow aerobically. Approved Standard M7-A4, 1997, vol. 17, National Committee for Clinical Laboratory Standards, Villanova, Pa.

[8] = differential free energy of binding relative to compound 1, 298 K, positive = improved affinity

T4 sequence (P00811 20-377 L309A): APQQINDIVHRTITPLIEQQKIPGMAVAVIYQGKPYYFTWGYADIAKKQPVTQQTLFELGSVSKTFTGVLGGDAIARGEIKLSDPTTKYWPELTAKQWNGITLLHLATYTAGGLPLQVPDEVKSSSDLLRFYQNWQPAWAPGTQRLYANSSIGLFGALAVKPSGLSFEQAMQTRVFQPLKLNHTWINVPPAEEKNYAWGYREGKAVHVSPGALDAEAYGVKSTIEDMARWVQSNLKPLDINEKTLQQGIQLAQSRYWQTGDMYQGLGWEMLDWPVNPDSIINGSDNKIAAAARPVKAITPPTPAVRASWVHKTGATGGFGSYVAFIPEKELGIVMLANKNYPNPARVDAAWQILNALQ
Chain of elastase (porcine pancreatic) (P00772 27-266): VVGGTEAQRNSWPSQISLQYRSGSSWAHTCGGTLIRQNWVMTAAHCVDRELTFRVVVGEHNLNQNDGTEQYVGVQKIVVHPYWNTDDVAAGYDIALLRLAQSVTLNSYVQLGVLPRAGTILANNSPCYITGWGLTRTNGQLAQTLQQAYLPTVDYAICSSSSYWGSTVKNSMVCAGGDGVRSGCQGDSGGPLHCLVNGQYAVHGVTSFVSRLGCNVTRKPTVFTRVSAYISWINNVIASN
T3 sequence (P00811 20-377 L135A): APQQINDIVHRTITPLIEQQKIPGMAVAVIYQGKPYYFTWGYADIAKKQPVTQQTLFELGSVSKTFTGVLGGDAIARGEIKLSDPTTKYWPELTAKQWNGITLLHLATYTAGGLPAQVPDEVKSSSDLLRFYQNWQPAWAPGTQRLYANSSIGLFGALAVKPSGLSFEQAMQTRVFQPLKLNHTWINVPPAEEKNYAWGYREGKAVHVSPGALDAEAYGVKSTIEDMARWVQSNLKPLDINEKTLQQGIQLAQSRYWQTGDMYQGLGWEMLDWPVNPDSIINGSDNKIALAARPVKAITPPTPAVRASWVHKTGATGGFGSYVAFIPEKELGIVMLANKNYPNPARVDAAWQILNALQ
T1 sequence (P00811 20-377 N305A): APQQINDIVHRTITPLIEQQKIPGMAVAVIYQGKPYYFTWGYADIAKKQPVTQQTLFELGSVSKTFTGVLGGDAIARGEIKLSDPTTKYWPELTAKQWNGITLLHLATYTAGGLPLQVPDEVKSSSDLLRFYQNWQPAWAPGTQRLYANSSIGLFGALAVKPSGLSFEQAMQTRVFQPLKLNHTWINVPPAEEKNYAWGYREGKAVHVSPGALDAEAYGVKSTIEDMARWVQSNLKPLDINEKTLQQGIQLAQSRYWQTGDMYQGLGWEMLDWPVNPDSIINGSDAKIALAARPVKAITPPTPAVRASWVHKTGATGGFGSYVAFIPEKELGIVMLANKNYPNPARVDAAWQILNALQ
T2 sequence (P00811 20-377): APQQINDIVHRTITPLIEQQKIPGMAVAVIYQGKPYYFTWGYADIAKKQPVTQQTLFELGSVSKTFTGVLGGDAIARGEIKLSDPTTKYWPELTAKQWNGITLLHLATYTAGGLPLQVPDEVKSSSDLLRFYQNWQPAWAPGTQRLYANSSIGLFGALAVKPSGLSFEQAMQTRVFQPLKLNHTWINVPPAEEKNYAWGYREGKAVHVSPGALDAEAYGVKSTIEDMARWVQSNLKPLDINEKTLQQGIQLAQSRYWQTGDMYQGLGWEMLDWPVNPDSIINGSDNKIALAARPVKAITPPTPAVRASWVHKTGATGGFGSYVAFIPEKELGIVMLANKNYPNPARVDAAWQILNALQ
Chain of β-trypsin (bovine pancreatic) (P00760 24-246): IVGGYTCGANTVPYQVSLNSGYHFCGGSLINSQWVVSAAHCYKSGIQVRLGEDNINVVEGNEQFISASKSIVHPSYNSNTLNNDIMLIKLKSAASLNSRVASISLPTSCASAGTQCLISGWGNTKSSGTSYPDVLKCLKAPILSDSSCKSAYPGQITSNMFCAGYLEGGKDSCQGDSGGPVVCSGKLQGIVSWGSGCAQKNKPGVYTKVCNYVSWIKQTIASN

Structure (SMILES): CC1(C)C2CC3OB([C@@H](NC(=O)Cc4cccs4)c4cccc(C=O)c4)O[C@@]3(C)C1C2 (single isomer, unassigned; (+)) [Compound 26]
- Ki (AmpC N289A): 0.018 µM
- Ki (AmpC β-lactamase [1]): 0.015 µM

- MIC (P. aeruginosa JMSMA7): 64 µg/mL
- MIC [2]: 32 µg/mL
Structure (SMILES): CC(C)(O/N=C(\C(=O)N[C@@H]1C(=O)N2C(C(=O)[O-])=C(C[n+]3ccccc3)CS[C@H]12)c1csc(N)n1)C(=O)O [CAZ, ceftazidime]

Structure (SMILES): CC(=O)NCB(O)O [Compound 1, reference compound]
- ΔΔG from 1 (AmpC β-lactamase [1]; [8]): 0.00 kcal/mol

Structure (SMILES): CC(C)(O/N=C(\C(=O)NCB(O)O)c1csc(N)n1)C(=O)O [Compound 3, reference compound]
- Ki (AmpC β-lactamase [3]): 0.02 µM
- ΔΔG from 1 (kcal/mol) (AmpC β-lactamase [1]; [8]): 4.04 — kcal/mol

Structure (SMILES): O=C(Cc1cccs1)NCB(O)O [Compound 4, reference compound]
- Ki (AmpC L119A): 0.676 µM
- Ki (AmpC L293A): 6.2 µM
- Ki (AmpC β-lactamase [1]): 0.186 µM

Structure (SMILES): CC(=O)N[C@H](B(O)O)c1cccc(C(=O)O)c1 [Compound 15, (1R)-1-acetylamino-1-(3-carboxyphenyl)methylboronic acid]
- Ki (AmpC β-lactamase [1]): 0.13 µM
- fold more potent than the lead compound lacking the m.carboxyphenyl side chain (AmpC β-lactamase [1]): 150 fold
- ΔΔG from 1 (AmpC β-lactamase [1]; [8]): 2.95 kcal/mol

Structure (SMILES): O=C(Cc1cccs1)N[C@H](B(O)O)c1cccc(C(=O)O)c1 [Compound 16, (1R)-1-(2-thienylacetylamino)-1-(3-carboxyphenyl)methylboronic acid]
- Ki (AmpC N289A): 0.017 µM
- reduction of affinity by the N289A substitution versus the wild-type enzyme (AmpC N289A): 17 fold
- ΔΔΔG, hydrogen bond energy between Asn289 and the inhibitor group (AmpC N289A; thermodynamic cycle, WT AmpC / N289A, mutant ligand 21): 1.7 kcal/mol
- IC50 [4]: 150 µM
- selectivity for AmpC over α-chymotrypsin [4]: 57,000 fold
- IC50 [5]: 500 µM
- selectivity for AmpC over elastase [5]: 190,000 fold
- IC50 (AmpC β-lactamase [1]): 0.0026 µM
- Ki (AmpC β-lactamase [1]): 0.001 µM
- type of inhibition of AmpC (AmpC β-lactamase [1]): time-dependent inhibition
- Ki (AmpC β-lactamase [1]; 50 mM Tris pH 7.0, 200 μM nitrocefin, 5 min incubation): 0.001 µM
- fold more potent than the lead compound lacking the m.carboxyphenyl side chain (AmpC β-lactamase [1]): 300 fold
- ΔΔG from 1 (AmpC β-lactamase [1]; [8]): 5.82 kcal/mol
- improvement of binding energy by addition of the m.carboxyphenyl side chain (AmpC β-lactamase [1]; versus lead lacking the side chain): 3.4 kcal/mol
- IC50 [6]: > 1000 µM
- synergy with ceftazidime [7]: showed synergy

Structure (SMILES): Cc1onc(-c2ccccc2Cl)c1C(=O)N[C@H](B(O)O)c1cccc(C(=O)O)c1 [Compound 17, (1R)-1-{[3-(2-Chlorophenyl)-5-methyl-isoxazole-4-carbonyl]-amino}-1-(3-carboxyphenyl)methylboronic acid]
- Ki (AmpC β-lactamase [1]): 5.7 µM
- binding energy made worse by addition of the m.carboxyphenyl group (AmpC β-lactamase [1]; 17 versus 2): about 2 kcal/mol
- fold less potent (higher Ki) than compound 2 lacking the m.carboxyphenyl group (AmpC β-lactamase [1]; 17 versus 2): 40 fold
- ΔΔG from 1 (AmpC β-lactamase [1]; [8]): 0.70 kcal/mol
- melting point: 180 to 190 °C

Structure (SMILES): O=C(Cc1cccs1)N[C@H](B(O)O)c1ccccc1 [Compound 21, (1R)-1-(2-thienylacetylamino)-1-phenylmethylboronic acid]
- Ki (AmpC N289A): 0.037 µM
- fall in affinity relative to the affinity of 16 for the mutant (AmpC N289A; AmpC N289A): 2 fold
- Ki (AmpC L119A): 0.012 µM
- ΔΔΔG, interaction between the inhibitor phenyl ring and Leu119 (AmpC L119A; thermodynamic cycle, WT AmpC / L119A, L=21, L′=4, negative = unfavorable): -1.4 kcal/mol
- Ki (AmpC L293A): 0.521 µM
- ΔΔΔG, interaction between the inhibitor phenyl ring and Leu293 (AmpC L293A; thermodynamic cycle, WT AmpC / L293A, L=21, L′=4, negative = unfavorable): -0.5 kcal/mol
- reduction of affinity by the L293→Ala substitution (AmpC L293A; versus wild-type AmpC): 1.6 kcal/mol
- IC50 [4]: 6 µM
- selectivity for AmpC over α-chymotrypsin [4]: 60 fold
- IC50 [5]: 128 µM
- selectivity for AmpC over elastase [5]: 1,400 fold
- IC50 (AmpC β-lactamase [1]): 0.09 µM
- Ki (AmpC β-lactamase [1]): 0.035 µM
- ΔΔG from 1 (AmpC β-lactamase [1]; [8]): 3.71 kcal/mol
- fold less active than compound 16 (AmpC β-lactamase [1]; wild-type AmpC): 35 fold
- IC50 [6]: > 1000 µM
- melting point: 90 to 100 °C
- synergy with ceftazidime [7]: showed synergy

Structure (SMILES): O=C(Cc1cccs1)N[C@@H]1C(=O)N2C(C(=O)O)=C(/C=C/c3ccc([N+](=O)[O-])cc3[N+](=O)[O-])CS[C@H]12 [nitrocefin, reference compound]
- Km (AmpC N289A; read-out: KM of nitrocefin, N289A): 27 µM
- Km (AmpC L293A; read-out: KM of nitrocefin, L293A): 33 µM
